The record followed here is PMC9080226 (RSC Advances, 2018).

By IC50 is commonly meant the point on the concentration scale where inhibition reaches its midpoint.

In series [1] the target is T1, COMT in DLS9 (Canis lupus familiaris, UniProt Q60F99).
T1 sequence (Q60F99 1-221): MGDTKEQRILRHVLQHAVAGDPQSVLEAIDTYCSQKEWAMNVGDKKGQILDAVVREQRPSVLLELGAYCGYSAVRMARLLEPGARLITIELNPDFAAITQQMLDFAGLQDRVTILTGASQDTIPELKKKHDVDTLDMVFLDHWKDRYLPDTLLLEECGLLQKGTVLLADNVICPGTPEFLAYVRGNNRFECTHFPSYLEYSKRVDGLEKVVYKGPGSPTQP
Kind of series: Kinetic analysis of 3-BTD methylation in dog liver S9. The format is in vitro ADME, beagle dogs. Conditions: formation of 3-BTMD in DLS9; Vmax/Km.

The target in series [2] is T2, COMT in GpLS9 (Cavia porcellus, UniProt A0A286XRD6).
T2 sequence (A0A286XRD6 1-270): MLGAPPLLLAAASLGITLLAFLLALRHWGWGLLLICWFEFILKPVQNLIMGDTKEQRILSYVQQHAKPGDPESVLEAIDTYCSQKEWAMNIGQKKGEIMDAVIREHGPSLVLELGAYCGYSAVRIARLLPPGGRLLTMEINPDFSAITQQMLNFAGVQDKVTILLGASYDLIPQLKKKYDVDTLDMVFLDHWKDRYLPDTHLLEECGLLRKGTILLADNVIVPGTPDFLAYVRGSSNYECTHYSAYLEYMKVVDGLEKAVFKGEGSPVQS
Kind of series: Kinetic analysis of 3-BTD methylation in guinea pig liver S9. It is filed as in vitro ADME, Dunkin-Hartley guinea pigs. Conditions: formation of 3-BTMD in GpLS9; Vmax/Km.

The target in series [3] is T3, COMT in HLS9 (Homo sapiens, UniProt P21964).
T3 sequence (P21964 51-271 limits assumed): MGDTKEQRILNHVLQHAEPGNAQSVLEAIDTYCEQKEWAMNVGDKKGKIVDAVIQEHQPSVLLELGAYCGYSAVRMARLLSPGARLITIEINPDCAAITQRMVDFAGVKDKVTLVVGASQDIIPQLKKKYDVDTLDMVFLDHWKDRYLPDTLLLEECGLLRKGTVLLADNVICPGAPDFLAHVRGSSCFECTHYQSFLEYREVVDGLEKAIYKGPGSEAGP
As to the kind of experiment: Kinetic analysis of 3-BTD methylation in human liver S9. The format is in vitro ADME, humans. Conditions: formation of 3-BTMD in HLS9; Vmax/Km.

The target in series [4] is T4, COMT in RaLS9 (Oryctolagus cuniculus, UniProt A0A5F9DQ59).
T4 sequence (A0A5F9DQ59 1-268): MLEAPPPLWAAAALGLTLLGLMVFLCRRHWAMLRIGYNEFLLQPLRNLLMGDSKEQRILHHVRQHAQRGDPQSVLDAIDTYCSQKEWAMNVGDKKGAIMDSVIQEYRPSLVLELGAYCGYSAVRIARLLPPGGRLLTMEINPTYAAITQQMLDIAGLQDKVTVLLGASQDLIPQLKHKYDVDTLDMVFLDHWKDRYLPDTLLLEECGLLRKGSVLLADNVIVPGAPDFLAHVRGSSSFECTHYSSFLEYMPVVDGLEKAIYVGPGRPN
The format is in vitro ADME, New Zealand rabbits. Conditions: formation of 3-BTMD in RaLS9; Vmax/Km.

Series [5] addresses T5, COMT in RLS9 (Rattus norvegicus, UniProt P22734).
T5 sequence (P22734 44-264 limits assumed): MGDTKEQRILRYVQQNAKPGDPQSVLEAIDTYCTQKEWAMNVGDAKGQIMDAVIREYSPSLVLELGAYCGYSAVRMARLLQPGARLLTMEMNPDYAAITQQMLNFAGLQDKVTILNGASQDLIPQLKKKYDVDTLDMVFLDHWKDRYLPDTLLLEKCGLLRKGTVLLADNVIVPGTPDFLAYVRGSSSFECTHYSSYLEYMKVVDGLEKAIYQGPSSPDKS
Kind of series: Kinetic analysis of 3-BTD methylation in rat liver S9. It is filed as in vitro ADME, Sprague-Dawley rats. Conditions: formation of 3-BTMD in RLS9; Vmax/Km.

The target of series [6] is T6, COMT in MLS9 (Mus musculus, UniProt O88587).
T6 sequence (O88587 44-265 limits assumed): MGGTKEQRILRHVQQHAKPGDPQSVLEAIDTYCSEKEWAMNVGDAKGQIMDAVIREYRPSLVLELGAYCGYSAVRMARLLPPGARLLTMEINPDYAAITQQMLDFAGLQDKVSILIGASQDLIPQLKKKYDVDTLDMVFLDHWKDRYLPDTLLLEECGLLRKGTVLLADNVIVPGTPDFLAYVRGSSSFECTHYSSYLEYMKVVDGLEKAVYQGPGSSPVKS
As to the kind of experiment: Kinetic analysis of 3-BTD methylation in mouse liver S9. Conditions: formation of 3-BTMD in MLS9; Vmax/Km. It is filed as in vitro ADME, ICR/CD-1 mice.

For series [7], the target named is T4, COMT in RaLS9. As to the kind of experiment: biochemical.
Series [8] concerns COMT in RaLS9.
Series [9] deals with T7, COMT in CyLS9 (Macaca fascicularis, UniProt A0A7N9CL08).
T7 sequence (A0A7N9CL08 1-274): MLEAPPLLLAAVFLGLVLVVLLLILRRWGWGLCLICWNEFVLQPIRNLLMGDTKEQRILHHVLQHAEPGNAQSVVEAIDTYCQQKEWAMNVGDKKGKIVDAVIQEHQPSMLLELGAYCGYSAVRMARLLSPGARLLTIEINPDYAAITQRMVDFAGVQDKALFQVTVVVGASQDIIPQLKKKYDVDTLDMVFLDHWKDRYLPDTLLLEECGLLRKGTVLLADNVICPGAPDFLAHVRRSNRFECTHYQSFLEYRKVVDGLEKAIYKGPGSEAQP
Kind of series: Chemical inhibition assay of 3-BTD methylation in cynomolgus monkey liver S9.

Series [10] deals with T6, COMT in MLS9. Kind of series: biochemical.
For series [11], the target named is T2, COMT in GpLS9. Kind of series: Chemical inhibition assay of 3-BTD methylation in guinea pig liver S9. It is filed as biochemical, Dunkin-Hartley guinea pigs.
Series [12] concerns the target T1, COMT in DLS9. Kind of series: Chemical inhibition assay of 3-BTD methylation in dog liver S9. It is filed as biochemical, beagle dogs.
Series [13] concerns mammalian COMT in liver S9. Conditions: tolcapone 1000 nM, liver S9 from all the test species.

As for `O=c1oc2c(O)c(O)ccc2cc1-c1nc2ccccc2s1` [3-BTD, 3-(benzo[d]thiazol-2-yl)-7,8-dihydroxy-2H-chromen-2-one], the Clint in [1] was determined as 627 µL/min/mg; in [2], 191 µL/min/mg; in series [3] it was 112 µL/min/mg; in series [4] it was 235 µL/min/mg; in [5], 763 µL/min/mg; in series [6], 523 µL/min/mg.
As for `Cc1ccc(C(=O)c2cc(O)c(O)c([N+](=O)[O-])c2)cc1` [tolcapone], the concentration for half-maximal inhibition (IC50) was determined as 117 ± 10.3 nM in series [7]; 18.7 ± 3 nM in series [9] (CyLS9 0.2 mg ml^−1, 3-BTD (1 μM) 8-O-methylation as probe reaction, mean ± S.E.); 29 ± 3.9 nM in [10]; 108 ± 7.1 nM in series [11]; 20.8 ± 2.7 nM in series [12]. Besides, the “inhibitory potency (IC50) in animal liver S9 versus HLS9” value in series [8] was 6.9 fold; in series [9] (CyLS9 versus HLS9), 1.1 fold. Moreover, in series [13], the “inhibition of mammalian COMT-mediated 3-BTD methylation” value is listed as “strongly inhibit”.
